According to ChEMBL document CHEMBL1201862, “PubChem BioAssay data set” (2004):
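Grown in 96-well plates, cells were treated for 48 hours with each compound at five concentrations. Insufficient inhibition: endpoint recorded as highest concentration tested. At the GI50, growth is halved.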 Activity calls are given as the source filed them. Rule as the data show it: active = GI50 up to about 1.1 µM and inactive = higher.

Experiments:
Experiment in all cases: NCI anticancer screen, dose series, 48 h
HT-29 = system: HT-29
Malme-3M = system: Malme-3M
HCT-15 = system: HCT-15
MDA-MB-231 = system: MDA-MB-231
UACC-62 = system: UACC-62
LOX IMVI = system: LOX IMVI
SR = system: SR
COLO 205 = system: COLO 205
NCI-H522 = system: NCI-H522
OVCAR-8 = system: OVCAR-8
RPMI-8226 = system: RPMI-8226
SN12C = system: SN12C
UACC-257 = system: UACC-257
SW-620 = system: SW-620
HCT-116 = system: HCT-116
SK-MEL-28 = system: SK-MEL-28
UO-31 = system: UO-31
T47D = system: T47D
A498 = system: A498

Row | Compound | GI50 (HT-29) | GI50 (Malme-3M) | GI50 (HCT-15) | GI50 (MDA-MB-231) | GI50 (UACC-62) | GI50 (LOX IMVI) | GI50 (SR) | GI50 (COLO 205) | GI50 (NCI-H522) | GI50 (OVCAR-8) | GI50 (RPMI-8226) | GI50 (SN12C) | GI50 (UACC-257) | GI50 (SW-620) | GI50 (HCT-116) | GI50 (SK-MEL-28) | GI50 (UO-31) | GI50 (T47D) | GI50 (A498)
1 | Nc1c2ccccc2nc2ccc(C(=O)Nc3ccc(S(N)(=O)=O)cc3)cc12 | > 100 µM (inactive) | > 100 µM (inactive) | > 100 µM | > 100 µM (inactive) | > 100 µM (inactive) | > 100 µM (inactive) | > 100 µM (inactive) | > 100 µM (inactive) | > 100 µM (inactive) | > 100 µM (inactive) | > 100 µM (inactive) | > 100 µM (inactive) | > 100 µM (inactive) | > 100 µM (inactive) | > 100 µM (inactive) | > 100 µM (inactive) | > 100 µM (inactive) | > 100 µM (inactive) | 
2 | Cc1ccccc1N(C)S(=O)(=O)c1ccccc1[N+](=O)[O-] | 32.2 µM (inactive) | > 100 µM (inactive) | 57.9 µM | 22.3 µM (inactive) | 38.8 µM (inactive) | 55.3 µM (inactive) | 36.6 µM (inactive) | 13.1 µM (inactive) | 36.1 µM (inactive) | 75 µM (inactive) | 30.1 µM (inactive) | > 100 µM (inactive) | 57 µM (inactive) | 84.1 µM (inactive) | 41.1 µM (inactive) | 54.1 µM (inactive) | 34.3 µM (inactive) | 58.1 µM (inactive) | 
3 | COc1ccc2nc3cc(Cl)ccc3c(NCCCNCc3cc(OC)c(OC)c(OC)c3)c2c1 | 1.01 µM (active) | 2.23 µM (inactive) | 1.54 µM | 1.98 µM (inactive) | 1.91 µM (inactive) | 1.54 µM (inactive) | 1.2 µM (inactive) | 1.31 µM (inactive) | 1.5 µM (inactive) | 1.77 µM (inactive) | 1.53 µM (inactive) | 1.53 µM (inactive) | 1.94 µM (inactive) | 0.733 µM (active) | 1.24 µM (inactive) | 1.67 µM (inactive) | 1.65 µM (inactive) | 1.89 µM (inactive) | 
4 | CCOC(=O)CC(c1ccccc1)C(C)(C(=O)OCC)C(=O)OCC (configuration not stated) | > 100 µM (inactive) | > 100 µM (inactive) | > 100 µM | > 100 µM (inactive) | > 100 µM (inactive) | > 100 µM (inactive) | 61.2 µM (inactive) | > 100 µM (inactive) | > 100 µM (inactive) | > 100 µM (inactive) |  | > 100 µM (inactive) | > 100 µM (inactive) | > 100 µM (inactive) | > 100 µM (inactive) | > 100 µM (inactive) | 33.3 µM (inactive) | 78.2 µM (inactive) | 
5 | NS(=O)(=O)c1ccc(NC(NC(=O)C(C(F)(F)F)C(F)(F)F)(C(F)(F)F)C(F)(F)F)cc1 | > 100 µM (inactive) | > 100 µM (inactive) | > 100 µM | > 100 µM (inactive) | > 100 µM (inactive) | > 100 µM (inactive) | > 100 µM (inactive) | > 100 µM (inactive) | > 100 µM (inactive) | > 100 µM (inactive) | > 100 µM (inactive) | > 100 µM (inactive) | > 100 µM (inactive) | > 100 µM (inactive) | > 100 µM (inactive) | > 100 µM (inactive) | > 100 µM (inactive) | > 100 µM (inactive) | 
6 | Fc1cccc(F)c1C1SCc2nc3cc(Cl)ccc3n21 (configuration not stated) | 15.2 µM (inactive) | 17 µM (inactive) | 28.6 µM | 55.1 µM (inactive) | 37.9 µM (inactive) | 18.5 µM (inactive) | 17.8 µM (inactive) | 17.9 µM (inactive) | 39.7 µM (inactive) | 58.7 µM (inactive) | 22.7 µM (inactive) | 56.5 µM (inactive) | 32.8 µM (inactive) | 38.7 µM (inactive) | 18.5 µM (inactive) | 50.8 µM (inactive) | 19.2 µM (inactive) | 31.2 µM (inactive) | 
7 | Brc1ccc(-c2ccc(-c3ccc(-c4ccc(Br)s4)s3)s2)s1 | > 100 µM (inactive) |  | > 100 µM | > 100 µM (inactive) | > 100 µM (inactive) | > 100 µM (inactive) | > 100 µM (inactive) | > 100 µM (inactive) |  | > 100 µM (inactive) | > 100 µM (inactive) | > 100 µM (inactive) | > 100 µM (inactive) | > 100 µM (inactive) | > 100 µM (inactive) | > 100 µM (inactive) | > 100 µM (inactive) | > 100 µM (inactive) | > 100 µM (inactive)
8 | N#CC1Nc2ccccc2[C@@H](O)C1O (some centres not stated) | > 100 µM (inactive) | > 100 µM (inactive) | > 100 µM | > 100 µM (inactive) | > 100 µM (inactive) | > 100 µM (inactive) | > 100 µM (inactive) | > 100 µM (inactive) |  | > 100 µM (inactive) | > 100 µM (inactive) | > 100 µM (inactive) | > 100 µM (inactive) | > 100 µM (inactive) | > 100 µM (inactive) | > 100 µM (inactive) |  | > 100 µM (inactive) | 
9 | CN(CCN1C(=O)c2cccc3cccc(c23)C1=O)CCN1C(=O)c2cccc3cccc(c23)C1=O | > 100 µM (inactive) | 6 µM (inactive) | 0.178 µM | 13.7 µM (inactive) | 30 µM (inactive) | 58.6 µM (inactive) | 3.37 µM (inactive) | 2.55 µM (inactive) | 13.2 µM (inactive) | 5.55 µM (inactive) |  | 76 µM (inactive) | 60.1 µM (inactive) |  | 5.98 µM (inactive) | > 100 µM (inactive) | 5.81 µM (inactive) | 1.5 µM (inactive) | 
10 | CCN(CC)CCCNC(=O)c1cc2cc(NC(=O)c3cc4cc([N+](=O)[O-])ccc4[nH]3)ccc2[nH]1 | 35 µM (inactive) |  | > 100 µM | 54 µM (inactive) | 32.8 µM (inactive) |  | > 100 µM (inactive) | > 100 µM (inactive) |  | > 100 µM (inactive) | 16.9 µM (inactive) | > 100 µM (inactive) | 29.9 µM (inactive) | 68.2 µM (inactive) | > 100 µM (inactive) | 30.3 µM (inactive) | > 100 µM (inactive) | > 100 µM (inactive) | 27.4 µM (inactive)
11 | CC1=C2CC(C)(C)CC(=O)C2(C)CCC1=O (configuration not stated) | > 100 µM (inactive) | > 100 µM (inactive) | > 100 µM | > 100 µM (inactive) | > 100 µM (inactive) | > 100 µM (inactive) | 94.2 µM (inactive) | > 100 µM (inactive) | > 100 µM (inactive) | > 100 µM (inactive) | 3.02 µM (inactive) | > 100 µM (inactive) | > 100 µM (inactive) | > 100 µM (inactive) | > 100 µM (inactive) | > 100 µM (inactive) | > 100 µM (inactive) | > 100 µM (inactive) | 
12 | COC(=O)C1=C(C(=O)OC)C(Cc2ccccc2)(OO)OC1=O (configuration not stated) | 3.17 µM (inactive) | 6.22 µM (inactive) | 3.21 µM | 28.2 µM (inactive) | 3.52 µM (inactive) | 3.59 µM (inactive) | 3.52 µM (inactive) | 7.19 µM (inactive) | 2.32 µM (inactive) | 18.4 µM (inactive) |  | 4.22 µM (inactive) | 4.38 µM (inactive) | 2.83 µM (inactive) | 3.35 µM (inactive) | 7.76 µM (inactive) | 5.18 µM (inactive) | 9.98 µM (inactive) | 
